How the values were obtained:
[1] = test system: serotonin reuptake; details: cited from earlier work; for activity in inhibiting serotonin reuptake relative to the racemic mixture: believed, Viazzo et al. 1996, Deprez et al. 1998
[2] = test system: norepinephrine reuptake; details: cited from earlier work; for activity in inhibiting norepinephrine reuptake relative to the racemic mixture: believed, Viazzo et al. 1996, Deprez et al. 1998
[3] = test system: NMDA receptor; details: Shuto et al. 1995, 1996, 1998, 2001; cited from earlier work
[4] = test system: patients with a diagnosis of Irritable Bowel Syndrome (IBS) comorbid with fibromyalgia; experiment: 12-week dose escalation monotherapy trial of milnacipran in Irritable Bowel Syndrome; type: in vivo, human; details: 11 IBS/fibromyalgia patients, 25 to 200 mg daily
Method: A 12-week dose escalation monotherapy trial was conducted to evaluate milnacipran's efficacy in patients with a diagnosis of Irritable Bowel Syndrome (IBS) comorbid with fibromyalgia. Patients were washed off of a variety medications-including centrally acting stimulants, antidepressants and sedative-hypnotics-over a 2-4 week period; this was followed by a two-week baseline period. After successful completion of the baseline period, patients were started on milnacipran. All patients were started at a dose of 25 mg daily, and were then escalated weekly over a 4-week period to 50, 100, and finally 200 mg daily, or until dose-limiting toxicity (DLT) was evident. In the event that DLT was evident, the patient was stabilized at the previously well-tolerated dosage, and remained on this dose for eight weeks at stable dose therapy.
The patient global impression of change (PGIC) was administered at clinic visits scheduled during the 4th, 8th, and 12th weeks of treatment. The PGIC is a highly clinically relevant instrument useful for measurement of patient improvement during controlled clinical trials. (Indeed, this instrument was the basis by which alosetron (Lotronex™) was approved by the Food and Drug Administration for the IBS indication.)
The PGIC is a conceptually simple instrument which assesses the patient's overall satisfaction with a course of drug therapy. This is done by asking the patient, “Since the start of the study, my overall status is:” with the patient choosing from the 7 choices depicted in Table 1.
For the present purposes, responses between 1-3 and 5-7 were collapsed into “Improved” and “Worse”, respectively.

[5] = in humans; Caccia 1998; cited from earlier work

Structure (SMILES): CCN(CC)C(=O)[C@@]1(c2ccccc2)C[C@H]1CN (racemic) [milnacipran, (±)-cis-2-(aminomethyl)-N,N-diethyl-1-phenylcyclopropanecarboxamide]
- IC50 ([1]; reported, Moret et al. 1985, Palmier et al. 1989, read-out: IC50 serotonin reuptake inhibition): 200 nM
- antagonistic properties at the NMDA receptor [3]: have antagonistic properties at the NMDA receptor
- trial conclusion: therapy for IBS (PGIC at 12 weeks) [4]: safe and effective therapy for IBS
- most common adverse event ([4]; 12 weeks): intermittent nausea
- nature of milnacipran related adverse events ([4]; 12 weeks): transitory in nature
- reported AE of constipation ([4]; 12 weeks): one
- serious adverse events during the course of the trial ([4]; 12 weeks): no serious adverse events
- found in urine [5]: found in urine

Structure (SMILES): CCN(CC)C(=O)C1(c2ccc(O)cc2)CC1CN (centres unmarked) [para-hydroxylated derivative]
- found in urine [5]: found in urine

From patent publication US20030203055A1, “Methods of treating visceral pain syndromes” (Cypress Bioscience, Inc., priority 2002, published 2003)
